Experimental data published in US11471462B2, “Compositions and methods for detecting and treating diabetes” (THE BROAD INSTITUTE, INC., priority 2016, dated 2022).
Read-outs that look alike come from different tables or passages of the source. Residues, ends and D or L forms follow the SMILES beside them. *: point of attachment. Cbz = O=C(OCc1ccccc1)*

Experiments:
[1] = system: SLC16A11 (A11); test: ddPCR based screening assay for modulators of SLC16A11 expression (Z′); type: cell-based, human; details: SNU 761 cells; compound as positive control
Source text: As detailed herein above, SLC16A11 (A11) belongs to a family of monocarboxylate transporters. Expression of A11 was studied in SNU 761 cell lines. These liver cancer cells are ideal for studying SLC16A11 expression because A11 is expressed in higher quantity in liver cells, although expression of the gene in all tissues is extremely low. The 5 SNP risk haplotype causes lowered expression and interferes with protein-protein interactions between A11 and a cofactor protein, indicating loss of function. Therefore, increasing A11 expression in individuals with the risk haplotype is likely beneficial.
The quality of an assay can be quantified by Z′, a measure of how well the assay can differentiate between the positive and negative controls. Using the formula: […]
First the cells were treated with inhibitor compounds, their RNA was extracted, and that RNA was used as a template to create DNA. Then, the DNA was quantified using droplet digital PCR (ddPCR), analyzed and quantified using QuantaSoft™ (BioRad). […]
From the QuantaSoft scoring of each droplet, the means and standard deviations of SLC16A11 expression levels was determined in response to compound treatment. […] Points in light gray had the gene of interest and were scored as positive (FIG. 17C). SLC16A11 was scored in the graph. […]

[2] = system: SLC16A1; test: Compound treatment, SLC16A1 expression by ddPCR in NCIH716 cells; type: cell-based, human; details: 10 μM for 24 hours
Protocol: (§1) FIGS. 14A-14D provide graphs showing that mTOR inhibitors increase SLC16A11, but not SLC16A1 transcript levels. […] SLC16A11 (FIGS. 14A and 14B) and SLC16A1 (FIGS. 14C and 14D) expression was then assessed using droplet digital PCR (ddPCR). Bar plots depict relative fold-changes with respect to DMSO and error bars and standard deviations. Expression is normalized to housekeeping genes TBP or HPRT1.
(§2) A small number of the compounds that made the strongest positive connections to the SLC16A11 gene expression signature were selected and tested. […] Methotrexate was also included, which had been annotated as a dihydrofolate reductase inhibitor. SNU761 cells (derived from a human hepatocellular carcinoma) and NCIH716 cells (derived from a human cecum adenocarcinoma), which both express SLC16A11, were treated with the compounds. […]
(§3) RNA was DNase treated and converted into cDNA using the High-Capacity RNA-to-cDNA kit (Thermo Fisher Scientific). The following FAM-labeled TaqMan Real-Time PCR assays (Thermo Fisher Scientific) were used to quantify gene expression: SLC16A11 (Hs00601062_g1), SLC16A13 (Hs00416832_m1), SLC16A1 (Hs01560299_m1). […] Droplets were generated and analyzed using a QX200 Droplet Generator and Reader system (BioRad). Data was extracted using QuantaSoft (BioRad) and analyzed using Microsoft Excel.

[3] = system: SLC16A11; test: Compound treatment, SLC16A11 expression by ddPCR in SNU761 cells; type: cell-based, human; details: SNU761 cells
In short: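 SNU761 hepatocellular carcinoma cells, plated 24 h, treated with compounds at 10 μM final or vehicle, with treatment times matching the LINCS dataset. SLC16A11 mRNA quantified by TaqMan droplet digital PCR, normalized to TBP or HPRT1.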

[4] = system: SLC16A13; test: Compound treatment, SLC16A13 expression by ddPCR in primary human hepatocytes; type: cell-based; details: vs DMSO
Protocol: (§4) SLC16A11 (denoted by A11 when normalized by TBP and A11* for HPRT1), SLC16A13 (A13), and SLC16A1 (A1) in comparison with DMSO treated cells.
(§5) Primary human hepatocytes were purchased from Bioreclamation IVT. Hepatocyte lot used was BHL. Cells were thawed and immediately resuspended in CP media (Bioreclamation IVT) supplemented with torpedo antibiotic (Bioreclamation IVT). Cell concentration and viability were assessed prior to use. Cells were grown in a humidified CO2 incubator, at 37° C.
(§6) SNU761 and NCIH716 cells were plated into 96 well plates at a density of 20,000 cells per well. Hepatocytes were plated into collagen coated 96 well plates (Corning, 354408) at a density of 50,000 cells per well. After 24 hours, cells were treated with compounds at a final concentration of 10 μM or vehicle control for the appropriate amount of time. […]
as §3

[5] = system: SLC16A11; test: Compound treatment, SLC16A11 expression by ddPCR in primary human hepatocytes; type: cell-based; details: vs DMSO
Protocol: as §4, §5, §6, §3

[6] = system: SLC16A1; test: Compound treatment, SLC16A1 expression by ddPCR in SNU761 cells; type: cell-based, human; details: 10 μM for 24 hours
Protocol: as §1, §2, §3

[7] = system: panel of 260 kinases; details: concentrations up to 10 μmol/L, cited from earlier work
[8] = system: SLC16A1; test: Compound treatment, SLC16A1 expression by ddPCR in primary human hepatocytes; type: cell-based; details: vs DMSO
Protocol: as §4, §5, §6, §3

[9] = system: SLC16A11; test: Compound treatment, SLC16A11 expression by ddPCR in NCIH716 cells; type: cell-based, human; details: same concentrations and treatment times as LINCS
Protocol: A small number of the compounds that made the strongest positive connections to the SLC16A11 gene expression signature were selected and tested. […] Methotrexate was also included, which had been annotated as a dihydrofolate reductase inhibitor. SNU761 cells (derived from a human hepatocellular carcinoma) and NCIH716 cells (derived from a human cecum adenocarcinoma), which both express SLC16A11, were treated with the compounds. The same compound concentrations and treatment times were used as in the LINCS dataset experiments. […] For normalization, a different housekeeper gene, HPRT1, was used and obtained similar results with the mTOR inhibitors (FIGS. 14A and 14B).
SNU761 (human hepatocellular carcinoma) and NCIH716 (human cecum adenocarcinoma) were cultured in RPMI Medium 1640 supplemented with 10% Fetal Bovine Serum (FBS), 100 μg/ml Streptomycin and 100 U/ml Penicillin. Cells were grown in a humidified CO2 incubator, at 37° C.
For the unbiased approach taken to investigate the compounds that connected to the SLC16A11 gene expression signature, compounds were obtained from compound management at the Broad Institute.
SNU761 and NCIH716 cells were plated into 96 well plates at a density of 20,000 cells per well. Hepatocytes were plated into collagen coated 96 well plates (Corning, 354408) at a density of 50,000 cells per well. After 24 hours, cells were treated with compounds at a final concentration of 10 μM or vehicle control for the appropriate amount of time.
At the time of collection, cells in 96 well plates were lysed by directly adding 50 μL of RLT buffer (Qiagen). […]
as §3

[10] = system: SLC16A11 protein; test: Proteasomal degradation: SLC16A11 protein levels by Western blot; type: cell-based, human; details: HuH7 cells stably expressing SLC16A11^REF-V5; 5 μM for 3 hrs
Protocol: FIG. 5D (top panel) provides two Western blots showing that SLC16A11 is degraded by the proteasome and has a short half-life relative to other SLC16 family members. […] HEK293T cells expressing V5-tagged SLC16A11^REF, SLC16A13, or SLC16A1 were treated with cycloheximide (10 μg/mL) for the indicated times. Note that the SLC16A11, SLC16A13, and SLC16A1 images are from different exposure times. […] HuH7 cells stably expressing SLC16A11^REF-V5 were treated with MG132 (5 μM) or cyclohexamide for 3 hrs. FIG. 5D (bottom panel) provides Western blot showing SLC16A11 and BSG co-immunoprecipitations. (5D-A-5D-C): Co-immunoprecipitation of SLC16A11 and BSG confirms the reduced interaction between SLC16A11^T2D and BSG in HEK293T cells. BSG is glycosylated and runs as multiple bands by reducing SDS-PAGE. Molecular weight markers (kDa) are indicated. (5D-A): Interaction of BSG-V5 with immunoprecipitated SLC16A11-HA. (5D B): Interaction of SLC16A11-HA with immunoprecipitated BSG-V5. (C) Interaction of endogenous BSG with immunoprecipitated SLC16A11-HA. […]
Total protein concentration was measured using a BCA assay (Thermo Fisher Scientific) and equal quantities of protein were loaded on each gel. […] Signals were detected with HRP-conjugated secondary antibodies, followed by chemiluminescent detection and autoradiography. […]

| SMILES | A11 expression in manual ddPCR assay [1] | SLC16A1 expression with respect to DMSO [2] | SLC16A11 (A11) transcript levels, dose response curve ([3]; FIG. 16 top panel) | SLC16A11 transcript levels, compound treated compared to DMSO treated cells ([3]; same concentrations and treatment times as LINCS, ddPCR) | avg_fc (SLC16A11 expression, compound treated vs DMSO treated cells) ([3]; same doses and treatment times as in the LINCS dataset) | increase in SLC16A11 expression, compound treated compared to DMSO treated cells ([3]; unbiased test of 59 top and 20 middle LINCS compounds, LINCS doses and times) [fold] | SLC16A13 expression [4] | SLC16A11 expression [5] | SLC16A1 expression with respect to DMSO [6] | activity against a panel of 260 kinases [7] | activity against a panel of 260 kinases ([7]; listed as AZD8055) | SLC16A1 expression [8] | SLC16A11 transcript levels, compound treated compared to DMSO treated cells [9] | SLC16A11 protein levels [10] |
| --- | --- | --- | --- | --- | --- | --- | --- | --- | --- | --- | --- | --- | --- | --- |
| COc1ccc(-c2ccc3c(N4CCOC[C@@H]4C)nc(N4CCOC[C@@H]4C)nc3n2)cc1CO [AZD-8055, [5-[2,4-Bis((3S)-3-methylmorpholin-4-yl)pyrido[2,3-d]pyrimidin-7-yl]-2-methoxyphenyl]methanol] | increased | slight decrease | increase | about 3 fold | 4.253 | ~4 | decreased | increase SLC16A11 expression | slight decrease | not show significant activity | no significant activity | decreased | about 3 fold |  |
| CC(C)C[C@@H](C=O)NC(=O)[C@H](CC(C)C)NC(=O)[C@H](CC(C)C)NC(=O)OCc1ccccc1 [MG132] (Cbz-Leu-Leu-Leu-aldehyde) |  |  |  |  |  |  |  |  |  |  |  |  |  | increased |
